Test results: BigSolDB 2.1

Cn1cc([N+](=O)[O-])cn1
solubility (mole fraction)
Conditions | 283.15 K | 288.15 K | 293.15 K | 298.15 K | 303.15 K | 308.15 K | 313.15 K | 318.15 K | 323.15 K
in 1,2-dichlorobenzene | 0.000121 | 0.000147 | 0.000179 | 0.000215 | 0.000266 | 0.000331 | 0.000402 | 0.000492 | 0.000607
in 2-butanone | 0.0093 | 0.0098 | 0.0112 | 0.0139 | 0.0162 | 0.0177 | 0.021 | 0.0242 | 0.0285
in 2-pentanol | 0.000501 | 0.000685 | 0.000871 | 0.0011 | 0.00142 | 0.00175 | 0.00221 | 0.00278 | 0.00348
in acetic acid | 0.000218 | 0.000296 | 0.00039 | 0.000508 | 0.000633 | 0.000776 | 0.000925 | 0.00108 | 0.0012
in acetone | 0.0192 | 0.0239 | 0.0299 | 0.0379 | 0.0485 | 0.0626 | 0.0814 | 0.107 | 0.141
in acetonitrile | 0.00299 | 0.00334 | 0.00423 | 0.00507 | 0.006 | 0.00673 | 0.00756 | 0.00937 | 0.0117
in ethanol | 0.00483 | 0.00511 | 0.00546 | 0.00581 | 0.00633 | 0.00694 | 0.00736 | 0.00785 | 0.00823
in ethyl acetate | 0.0126 | 0.0143 | 0.0162 | 0.0183 | 0.0208 | 0.0235 | 0.0265 | 0.0299 | 0.0337
in isopropanol | 0.00185 | 0.00235 | 0.00292 | 0.00363 | 0.00455 | 0.00566 | 0.00697 | 0.0085 | 0.0102
in methanol | 0.00628 | 0.00699 | 0.00754 | 0.00835 | 0.00923 | 0.0103 | 0.0113 | 0.0126 | 0.014
in methyl acetate | 0.0161 | 0.0185 | 0.022 | 0.0255 | 0.0293 | 0.0351 | 0.0401 | 0.0461 | 0.0519
in n-butanol | 0.00205 | 0.00266 | 0.00323 | 0.00438 | 0.00559 | 0.00709 | 0.0091 | 0.0123 | 0.0154
in n-pentanol | 0.0016 | 0.00182 | 0.0021 | 0.0024 | 0.00278 | 0.00325 | 0.0038 | 0.00469 | 0.0054
in n-propanol | 0.00209 | 0.00229 | 0.00259 | 0.00296 | 0.00331 | 0.00382 | 0.00425 | 0.00487 | 0.00553
in sec-butanol | 0.000727 | 0.000891 | 0.00112 | 0.00151 | 0.00213 | 0.00287 | 0.00382 | 0.00501 | 0.00632
in toluene | 0.00714 | 0.00823 | 0.0095 | 0.0112 | 0.0132 | 0.0156 | 0.0189 | 0.0232 | 0.0276
in water | 7.5e-05 | 9.4e-05 | 0.000113 | 0.000127 | 0.000154 | 0.000181 | 0.000222 | 0.000273 | 0.000331
